Results: patent US20050123476A1 (priority 2001, published 2005)

What was measured:
[1] = system: HT1080 cells; type: cell-based, human
[2] = system: human cervix adenocarcinoma HeLa cells; type: cell-based
[3] = target: uPA (Homo sapiens, UniProt P00749); details: cited from earlier work
[4] = system: HeLa cells; type: cell-based, human

Compound: CNC(=O)[C@@H](NC(=O)[C@H](CC(C)C)[C@H](O)C(=O)NO)C(C)(C)C [BB-2516, Marimastat]
- protection of HT1080 cells against WT-PA plus FP59 [1]: did not protect
- protection of HT1080 cells against challenge with PA-L1 and PA-L2 plus FP59 [1]: conferred clear protection

Compound: CNC(=O)[C@H](Cc1c[nH]c2ccccc12)NC(=O)[C@@H](CC(=O)NO)CC(C)C [GM6001]
- protection of HT1080 cells against WT-PA plus FP59 [1]: did not protect
- protection of HT1080 cells against challenge with PA-L1 and PA-L2 plus FP59 [1]: conferred clear protection

Compound: Aprotinin
- effect on killing of HeLa cells by PrAg-U2 plus FP59 [2]: protected
- effect on killing of HeLa cells by native PrAg plus FP59 [2]: had no effect

Compound: PCPGRVVGG
- uPA:tPA selectivity [3]: 3.0

Compound: PGSGKSA
- uPA:tPA selectivity [3]: 121

Compound: PGSGRSA
- uPA:tPA selectivity [3]: 20

Compound: PQRGRSA
- uPA:tPA selectivity [3]: 0.005

Compound: SGRSA
- cleavage by uPA, times more efficiently than the physiological cleavage site present in plasminogen [3]: 1363 fold
- uPA:tPA selectivity [3]: 20

Compound: tranexamic acid [tranexainic acid]
- effect on activation of pro-uPA by HeLa cells [4]: strongly inhibited
- effect on binding/processing (activation) of PrAg-U2 on the HeLa cell surface [4]: strongly inhibited
- effect on processing/activation of native PrAg by cells [4]: not
